The text below walks through data of patent EP4790048A1, “S1PR4 REGULATOR COMPOUND FOR AUTOIMMUNE DISEASE TREATMENT AND APPLICATION THEREOF” (Shengyuan Zetong (Shanghai) Pharmaceutical Co., Ltd, priority 2023, dated 2025).

The structures appear in SMILES notation. Entries after “also recorded” stand apart in the source; their conditions may differ. Read-outs that look alike come from different tables or passages of the source. Some results are limits rather than exact numbers.

A word on the EC50: it is the concentration giving half of the maximal effect.

One assay addresses T1, S1PR5 (Homo sapiens, UniProt Q9H228).
T1 construct: expressed in transfected cells
The experiment in a line: FLIPR assay, S1PR5-CHO cell line. Format: cell-based. Particulars: mean ± SD.

For a further assay, the target named is T2, hS1P1 (Homo sapiens, UniProt P21453).
T2 construct: expressed in transfected cells; host or cells: CHO
Put plainly: Tango β-arrestin recruitment luciferase assay, Tango-hS1P1-CHO. Format: cell-based. As to conditions: S1PR1; Tango-S1PR1-CHO-K1 cells; mean ± SD; read-out: EC50. Put shortly:
(§1)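 CHO Tango cells (receptor–V2 tail–TEV/tTA fusion, β-arrestin 2–TEV, UAS-luciferase reporter) plated overnight (20 h) at 37°C, then treated 20 h with compounds, top final 45 µM, 9 five-fold dilutions, triplicates. Luciferase luminescence read; BAF-312 positive control at 1 µM (S1PR1) or 25 µM (S1PR4).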
For orientation: Arrestin recruitment assays detect the binding of arrestin to an activated receptor.

Another assay deals with mouse. Put plainly: DSS mouse acute UC model, dosing concurrent with modeling (Example 7). It counts as in vivo. As to conditions: intragastric, Compound 30 0.3, 1, 3 mg/kg, Compound 67 1 mg/kg; for colon length: positive control RPC1063 1 mg/kg. The procedure:
Mouse models were established using DSS, with the protocol being 2.5% DSS in drinking water for 5 days followed by ad libitum normal drinking water for 2 days. Intragastric administration was performed concurrently with modeling, and RPC1063 was used as the positive control drug. The specific groupings were as follows: RPC1063 was administered intragastrically at 1 mg/kg. Compound 30 was tested at three doses: 0.3 mg/kg, 1 mg/kg, and 3 mg/kg. Compound 38 was administered at 5 mg/kg, while Compounds 53, 67, 77, and 80 were each administered at 1 mg/kg.

The test system of a further assay is BALB/c mice. The experiment in a line: Imiquimod-induced mouse psoriasis model. Format: in vivo. An excerpt:
The imiquimod-induced mouse psoriasis model is a commonly used model for psoriasis research. This model uses the topical immune modulator imiquimod (IMQ) to induce lesions similar to human psoriasis on the skin of mice.
• Mice: Female BALB/c mice, aged 6-8 weeks. • Imiquimod cream: 5% IMQ cream. • Experimental Procedures • Animal preparation: Mice were acclimated to the laboratory environment for at least one week.
Random grouping: Generally, 5 mice were included in each group. Specifically, the groups were as follows: adalimumab injection group for positive control; compounds 30 and 67 administered by gavage, divided into 3 dosage groups: 0.3, 1, and 3 mg/kg.
The hair on the backs of the mice in each group was shaved with a razor, covering an area of approximately 2 × 3 cm^2.
5% IMQ cream was applied daily to the shaved area on the mouse backs at a dose of 62.5 mg of IMQ cream for 6-7 consecutive days. Skin reactions of the mice were observed after 7 days, including erythema, scaling, and skin thickening.

The subject of a further assay is MRL/lpr mice. The experiment in a line: Systemic lupus erythematosus model, MRL/lpr mice. Format: in vivo. As to conditions: for renal pathology (HE and PAS staining): 8 weeks of treatment. Here is the method:
Based on this, the inventor conducted efficacy evaluation on this compound using MRL/lpr mice, a classic model of lupus erythematosus.
The efficacy of Compound 67 was evaluated using MRL/Lpr lupus model mice.
The specific groups were as follows: MPJ control group, model group, positive drug Cenerimod group at 0.5 mg/kg, and Compound 67 at two doses: 1 mg/kg and 3 mg/kg.

Assay [1] has as its system hS1P4. Put plainly: Tango β-arrestin recruitment luciferase assay, Tango-hS1P4-CHO. Format: cell-based, human. As to conditions: S1PR4 versus S1PR1, β-arrestin recruitment EC50. The method, boiled down:
as §1

Assay [2] addresses T3, hS1P4 (Homo sapiens, UniProt O95977).
T3 construct: expressed in transfected cells; host or cells: CHO
T3 sequence (O95977 1-384): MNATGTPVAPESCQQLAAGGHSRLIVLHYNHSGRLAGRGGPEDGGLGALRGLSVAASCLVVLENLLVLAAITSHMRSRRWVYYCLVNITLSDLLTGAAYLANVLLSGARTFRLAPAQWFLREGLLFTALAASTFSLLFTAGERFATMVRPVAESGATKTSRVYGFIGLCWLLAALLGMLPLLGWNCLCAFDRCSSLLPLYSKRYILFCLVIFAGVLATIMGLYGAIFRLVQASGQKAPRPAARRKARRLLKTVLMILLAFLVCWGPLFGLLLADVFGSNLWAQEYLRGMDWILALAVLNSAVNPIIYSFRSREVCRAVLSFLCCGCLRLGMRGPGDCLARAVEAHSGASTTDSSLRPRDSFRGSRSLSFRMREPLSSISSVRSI
The description is as above. It counts as cell-based. Put shortly:
as §1

Where [3] appears, read: gavage 0.3, 1 and 3 mg/kg, after 7 days of IMQ.
Where [4] appears, read: high dose of 3 mg/kg, compared with adalimumab.
Setting [5] is: Compound 67 1 mg/kg and 3 mg/kg, 8 weeks, vs SLE model group.
Where [6] appears, read: S1PR4, Tango-S1PR4-CHO-K1 cells, mean ± SD, read-out: EC50.
The mark [7] stands for this setting: β-arrestin recruitment, 20 h drug treatment, top 45 µM, 9 serial 5-fold dilutions, positive control 25 µM BAF-312, read-out: Tango-hS1P4-CHO EC50.

T1 sequence (Q9H228 whole entry, species assumed): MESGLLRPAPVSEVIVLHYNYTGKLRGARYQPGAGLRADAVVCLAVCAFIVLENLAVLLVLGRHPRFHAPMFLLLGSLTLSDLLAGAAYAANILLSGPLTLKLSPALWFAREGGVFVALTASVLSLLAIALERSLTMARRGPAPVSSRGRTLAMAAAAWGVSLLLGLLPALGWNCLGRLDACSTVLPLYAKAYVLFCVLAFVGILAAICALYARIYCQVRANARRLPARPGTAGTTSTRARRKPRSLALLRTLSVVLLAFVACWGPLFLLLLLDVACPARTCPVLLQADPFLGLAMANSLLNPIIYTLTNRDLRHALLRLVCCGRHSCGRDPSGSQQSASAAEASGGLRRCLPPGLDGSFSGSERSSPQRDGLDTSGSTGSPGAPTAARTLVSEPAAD
T2 sequence (P21453 whole entry): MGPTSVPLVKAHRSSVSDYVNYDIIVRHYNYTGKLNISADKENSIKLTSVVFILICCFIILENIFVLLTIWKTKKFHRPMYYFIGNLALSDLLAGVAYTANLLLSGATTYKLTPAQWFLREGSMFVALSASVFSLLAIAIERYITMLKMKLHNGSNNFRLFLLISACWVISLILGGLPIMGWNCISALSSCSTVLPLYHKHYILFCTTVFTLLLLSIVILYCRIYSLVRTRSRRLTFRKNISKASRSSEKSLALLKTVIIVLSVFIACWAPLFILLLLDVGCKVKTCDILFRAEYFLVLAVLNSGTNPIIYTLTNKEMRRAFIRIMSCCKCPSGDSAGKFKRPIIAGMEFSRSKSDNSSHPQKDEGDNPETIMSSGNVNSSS

As for `CCc1cc(/C(C)=N/OCc2ccc(-c3cnc(F)cn3)c(C)c2)ccc1CN1CC[C@H](C(=O)O)C1` [Compound 67, (S, E)-1-(2-ethyl-4-(1-(((4-(5-fluoropyrazin-2-yl)-3-methylbenzyl)oxy)imino)ethyl)benzyl)pyrrolidine-3-carboxylic acid], on S1PR5 (read-out: EC50), the EC50 came out at 3740 ± 221 nM. Besides, the EC50 at hS1P1 worked out at 195 ± 16 nM. For the same molecule, in the assay on mouse, the DAI scores entry is “favorable effects”, the body weight result is listed as “less body weight loss” and the colon length result is “significant efficacy”. Further, in the assay on BALB/c mice (setting [3]), the “skin reactions (erythema, scaling, skin thickening)” value (shortened to “skin reactions”) is given as “significant alleviating effects at all concentrations in a dose-dependent manner”. In addition, the “skin reactions” value with BALB/c mice (setting [4]) is given as “therapeutic effects similar to those of adalimumab”. Also, in the assay on MRL/lpr mice (vs SLE model group), the “renal pathology (HE and PAS staining)” value is reported as “inflammatory cell infiltration was significantly reduced”; the “Th1- and Th17-positive cells in spleen, Th1/Th2 and Th17/Treg ratios” value is “regulates the number and ratio of T lymphocytes; also recorded: significantly reduce the number of Th1- and Th17-positive cells”. Also, in the assay on MRL/lpr mice (8 weeks, vs SLE model group), the “serum anti-nuclear / anti-double-stranded DNA antibody level” value is recorded as “significantly reduces the anti-double-stranded DNA antibody level; also recorded: significantly reduce the level of anti-double-stranded DNA antibody”. In the assay on MRL/lpr mice (setting [5]), the serum creatinine level entry is on record as “significantly reduce the serum creatinine level” and the “urinary microalbumin level (MAU)” value was “significantly reduced the urinary microalbumin level”. In addition, the “selectivity over S1PR1” value with hS1P4 [1] is “more than 100 fold”. Also, on hS1P4 [2] (setting [6]), the half-maximal effective concentration (EC50) stood at 1.8 ± 0.43 nM. Further, the EC50 on hS1P4 [2] (setting [7]) turned out to be 1.8 nM.

In the case of `CCc1cc(/C(C)=N/OCc2ccc(-c3ccccc3)c(C)c2)ccc1CN1CC[C@H](C(=O)O)C1` [Compound 30], the EC50 entry on S1PR5 was “no agonist activity”; on S1PR5 (read-out: EC50), > 10000 nM; at hS1P1, 87.6 ± 3.35 nM; at hS1P4 [2] (setting [6]) it was 9.09 ± 0.67 nM; at hS1P4 [2] (setting [7]), 9.09 nM. In addition, the DAI scores result with mouse is reported as “favorable effects”. In addition, the body weight result with mouse is on record as “concentration-dependent recovery”. Further, the colon length result with mouse is “significant efficacy”. The “skin reactions” value in the assay with BALB/c mice (setting [3]) is “significant alleviating effects at all concentrations in a dose-dependent manner”; in the assay on BALB/c mice (setting [4]), “therapeutic effects similar to those of adalimumab”. The “renal pathology (HE and PAS staining)” value with MRL/lpr mice (vs SLE model group) is “improves renal pathological injury; also recorded: renal interstitial inflammatory cell infiltration was significantly reduced”. Besides, in the assay on MRL/lpr mice (8 weeks, vs SLE model group), the “serum anti-nuclear / anti-double-stranded DNA antibody level” value is given as “dose-dependently reduces; also recorded: markedly decreased”. In addition, in the assay with MRL/lpr mice (SLE mice, vs model), the subcutaneous nodules result is reported as “dose-dependently reduces; also recorded: significantly reduced subcutaneous nodules”. Also, in the assay with MRL/lpr mice (continuous administration for 8 weeks, vs SLE model group), the “body weight gain and mortality” value is “reduces the mortality rate; also recorded: prevented body weight gain and reduced mortality in a dose-dependent manner”. In the assay with MRL/lpr mice (vs SLE model group), the “Th1- and Th17-positive cells in spleen, Th1/Th2 and Th17/Treg ratios” value is “regulates the number and ratio of T lymphocytes; also recorded: significantly reduce the number of Th1- and Th17-positive cells”. Also, in the assay with hS1P4 [1], the “selectivity over S1PR1” value was “approximately 10 fold”.
